From patent US20050137185A1, “Combinations of drugs for the treatment of neoplasms” (priority 2003, published 2005) come the findings set out here.

The test has as its system HCT116 cells. As to the kind of experiment: Anti-proliferation assay (Alamar Blue metabolism). The class given is cell-based. Particulars: Homo sapiens, read-out: Percent inhibition of Alamar Blue Metabolism in HCT116 cells; for inhibition at 5 µM: HCT-116, chlorpromazine 5 μM; for inhibition at 10 µM: HCT-116, chlorpromazine 10 μM; for inhibition at 40 µM: HCT-116, chlorpromazine 40 μM. The method, then:
Stock solutions (1000×) of each compound were prepared in DMSO and stored at −20° C. Master stock plates of 2-fold or 4-fold serial dilutions of individual compounds were prepared in 384-well plates. Combination matrices of test compounds were generated from these master stock plates by dilution into growth media described above. […] The combination matrices were used immediately and discarded.
The anti-proliferation assays were performed in 384-well plates. […] Cells were diluted in culture media such that 1500 cells were delivered in 40 μL of media into each assay well. […] 10× stock solutions (4.5 μL) from the combination matrices were added to 40 μL of culture media in assay wells. Assay plates were incubated for 72-80 hours at 37±0.5° C. with 5% CO2. […] Alamar Blue metabolism was quantified by the amount of fluorescence intensity 3.5-5.0 hours after addition. Quantification, using an LJL Analyst AD reader (LJL Biosystems), was taken in the middle of the well with high attenuation, a 100 msec read time, an excitation filter at 530 nm, and an emission filter at 575 nm. For some experiments, quantification was performed using a Wallac Victor^2 reader. Measurements were taken at the top of the well with stabilized energy lamp control; a 100 msec read time, an excitation filter at 530 nm, and an emission filter at 590 nm.
(In general: Alamar Blue is a resazurin reagent that responds to reducing activity.)

Structures are written as SMILES. Like-named read-outs stand apart in the source and are kept apart here.

Regarding `Nc1nc2c(c(=O)[nH]1)N(C=O)C(CNc1ccc(C(=O)N[C@@H](CCC(=O)O)C(=O)O)cc1)CN2` (some centres unmarked) [Leucovorin, leucovorin], the inhibition at 20 µM (HCT-116, chlorpromazine 0 μM, leucovorin 20 μM) is -11.5%.

Take `CN(C)CCCN1c2ccccc2Sc2ccc(Cl)cc21` [Chlorpromazine, chlorpromazine]: the inhibition at 7 µM (HCT-116, 72 h, chlorpromazine 7 μM, tyrphostin 1486 0 μM) is -18.6%. The inhibition at 14 µM (HCT-116, 72 h, chlorpromazine 14 μM, tyrphostin 1486 0 μM) was -12.5%. Also, under “HCT-116, 72 h, chlorpromazine 28 μM, tyrphostin 1486 0 μM”, the inhibition at 28 µM was found to be 62.2%. Moreover, where the note is “HCT-116, 72 h, chlorpromazine 56 μM, tyrphostin 1486 0 μM”, the inhibition at 56 µM amounted to 85.6%. Also, the inhibition at […] (HCT-116, 72 h, chlorpromazine […], tyrphostin 1486 0 μM) is 95.9%; the inhibition at […] (HCT-116, chlorpromazine […], dacarbazine 0 μM) came to 4.03%; the inhibition at […] (HCT-116, chlorpromazine […], docetaxel 0 μM) was -12.2%; the inhibition at […] (HCT-116, chlorpromazine […], floxuridine 0 μM) was -0.0804%; the inhibition at […] (HCT-116, chlorpromazine […], hydroxycamptothecin 0 μM) is -8.14%; the inhibition at […] (HCT-116, chlorpromazine […], leucovorin 0 μM) was -0.0253%. Also, the inhibition at […] by setting is: (HCT-116, chlorpromazine […], paclitaxel 0 μM) 10.1%; (HCT-116, chlorpromazine […], vinblastine 0 μM) -20%; (HCT-116, chlorpromazine […], vinorelbine 0 μM) -0.591%. The inhibition at 5 µM by setting is: (dacarbazine 0 μM) 17%; (docetaxel 0 μM) 2.8%; (floxuridine 0 μM) 3.53%; (hydroxycamptothecin 0 μM) 24%; (leucovorin 0 μM) -4.39%; (paclitaxel 0 μM) -11.8%. Also, the inhibition at 5 µM was -20% (vinblastine 0 μM) and -20% (vinorelbine 0 μM). For the same compound, the inhibition at 10 µM (dacarbazine 0 μM) came out at 54.6%; the inhibition at 10 µM (docetaxel 0 μM) is 84.8%; the inhibition at 10 µM (floxuridine 0 μM) came out at 65.4%; the inhibition at 10 µM (hydroxycamptothecin 0 μM) turned out to be 84%; the inhibition at 10 µM (leucovorin 0 μM) turned out to be 3.27%; the inhibition at 10 µM (paclitaxel 0 μM) is 56.2%. Besides, the inhibition at 10 µM (vinblastine 0 μM) worked out at 50.8% and the inhibition at 10 µM (vinorelbine 0 μM) is 60%. Also, the inhibition at 20 µM reads like this: (HCT-116, chlorpromazine 20 μM, docetaxel 0 μM) 91.9%; (HCT-116, chlorpromazine 20 μM, floxuridine 0 μM) 88.5%; (HCT-116, chlorpromazine 20 μM, hydroxycamptothecin 0 μM) 88.2%; (HCT-116, chlorpromazine 20 μM, leucovorin 0 μM) 80.9%; (HCT-116, chlorpromazine 20 μM, paclitaxel 0 μM) 87%; (HCT-116, chlorpromazine 20 μM, vinblastine 0 μM) 85.8%. Besides, the inhibition at 20 µM (HCT-116, chlorpromazine 20 μM, vinorelbine 0 μM) turned out to be 88.4%. Moreover, the inhibition at 40 µM reads like this: (dacarbazine 0 μM) 95.8%; (docetaxel 0 μM) 95.7%; (floxuridine 0 μM) 95.7%; (hydroxycamptothecin 0 μM) 95.8%; (leucovorin 0 μM) 95.6%; (paclitaxel 0 μM) 95.7%. In addition, the inhibition at 40 µM was found to be 94.5% (vinblastine 0 μM) and 94.7% (vinorelbine 0 μM).

With `CCC1=C[C@@H]2CN(C1)Cc1c([nH]c3ccccc13)[C@@](C(=O)OC)(c1cc3c(cc1OC)N(C)[C@H]1[C@@](O)(C(=O)OC)[C@H](OC(C)=O)[C@]4(CC)C=CCN5CC[C@]31[C@@H]54)C2` [Vinorelbine, vinorelbine], for the setting “HCT-116, chlorpromazine 0 μM, vinorelbine 0.004 μM”, the inhibition at 0.004 µM was -8.91%. For the same compound, the inhibition at 0.008 µM (HCT-116, chlorpromazine 0 μM, vinorelbine 0.008 μM) amounted to 42.1%.

For `COc1cc2ncnc(Nc3cccc(Cl)c3)c2cc1OC` [Tyrphostin 1486, Tyrphostin AG1478], where the note is “HCT-116, chlorpromazine 0 μM, tyrphostin 1486 13 μM”, the inhibition at 13 µM turned out to be 78.7%. For the same compound, the inhibition at 26 µM (HCT-116, chlorpromazine 0 μM, tyrphostin 1486 26 μM) is 81.4%. In addition, the inhibition at 51 µM (HCT-116, chlorpromazine 0 μM, tyrphostin 1486 51 μM) was found to be 81.3%.

In the case of `CN(C)/N=N/c1[nH]cnc1C(N)=O` [Dacarbazine, dacarbazine], the inhibition at 14 µM (HCT-116, chlorpromazine 0 μM, dacarbazine 14 μM) is 42.6%. For the same compound, the inhibition at 27 µM (HCT-116, chlorpromazine 0 μM, dacarbazine 27 μM) is 64.6%. Besides, the inhibition at 55 µM (HCT-116, chlorpromazine 0 μM, dacarbazine 55 μM) is 74.2%.

The inhibition is the drop in the measured response relative to a control, in per cent.
